For data set [1], the system named is HCC827(wt). Description: Cell selectivity test, proliferation inhibition HCC827. The format is cell-based. Conditions: Homo sapiens, 72 hours. From the text: (§1) • 1. Test purpose: to detect the proliferation inhibition of the test compounds on NCI-H23, NCI-H2122, HCC827, Mia paca2, A549 and SW837 cell lines. • 2. […] No. FND500); Penicillin-streptomycin was purchased from Gibco (Art. No. 15140-122); 0.25% trypsin-ethylenediaminetetraacetic acid digestive juice (Trypsin-EDTA) was purchased from Gibco (Art. No. 25200-072); dimethyl sulfoxide (DMSO) was purchased from Sigma (Art. No. D2650); 96-well cell plate was purchased from Corning (Art. No. 3610); incubator was purchased from NuAire (model number: NU-5700E); Biosafety cabinet was purchased from AuAire (model number: NU-543-600S); Inverted microscope was purchased from Nikon (Art. No. TS-100); Automated cell counter was purchased from Life technologies (model number: Countess II); Microplate reader was purchased from PerkinElmer (model number: Envision); the data processing software was GraphPad Prism 5.0. […]

Data set [2] relates to SW837(G12C). Briefly: Cell selectivity test, proliferation inhibition SW837. It is filed as cell-based. Conditions: Homo sapiens, 72 hours.
Text: as §1

Data set [3] relates to phosphorylation level of ERK in NCI-H358 cells. Briefly: NCI-H358 pERK inhibitory activity (HTRF phospho-ERK). Particulars: Homo sapiens, 1 hour incubation. The format is cell-based. (In general: In TR-FRET formats the signal depends on donor and acceptor labels being close together.)
Procedure: Test purpose: to detect the inhibitory effect of the test compound on the phosphorylation level of ERK in NCI-H358 cells. • 2. […] Test method:
NCI-H358 cells suspension was seeded at 80 μL per well in a clear 96-well cell culture plate, with 10000 cells each well. The cell culture plate was placed in an incubator and incubated overnight at 37° C. under 5% CO2. After incubation, the cell supernatant was discarded, 80 μL of PRMI1640 medium containing 0.02% serum was added to each well, and the cell culture plate was placed in an incubator and incubated overnight at 37° C., under 5% CO2. The test compound was diluted with 100% DMSO to 4 mmol/L as the first concentration, and then diluted 5-fold to the 8th concentration using a pipette. 2 μL of compound or DMSO (as negative control) was taken and added with 158 μL of cell culture medium. After mixing evenly, 20 μL of the compound solution was taken and added to corresponding cell plate well. […] After incubation, the signals at 615 nm and 665 nm were read using a multi-label analyzer. The percent inhibition was calculated according to the following formula: Ratio=(signal 665 nm/signal 615 nm)×10000; the percent inhibition=(ratio of test compound-ratio of negative control)/(ratio of blank-ratio of negative control)×100%.
For data set [4], the system named is NCI-H23 (G12C). Description: Cell selectivity test, proliferation inhibition NCI-H23. Particulars: Homo sapiens, 72 hours. The format is cell-based.
Text: as §1

Data set [5] is described as follows: Pharmacokinetics study in mice (IV and PO). Conditions: ICR male mice. It is filed as in vivo. How it is done: Preparation of 0.5% methyl cellulose: 5 g of methyl cellulose were weighed and dissolved in 1000 mL of purified water.
Preparation of oral formulation: a required amount of the test compound was weighed and dissolved in 0.5% methyl cellulose solution to obtain a suspension or solution of 0.5 mg/mL.
Preparation of intravenous injection formulation: a required amount of test compound was weighed, and dissolved in 0.5 mL of dimethyl sulfoxide to prepare a solution of 4 mg/mL. 0.06 mL of the above solution was taken, and 0.12 mL of polyethylene glycol 15 hydroxystearate (solutol) and 1.02 mL of normal saline were added thereto to obtain a solution of 0.2 mg/mL.
Feeding 4 hours after administration.
Sample Collection: blood was collected via the jugular vein or other suitable vein, and 0.03 mL blood was collected at each time point. Samples were placed into tubes containing ethylenediaminetetraacetic acid dipotassium salt and kept on ice before centrifugation. Within 1 hour after blood collection, the blood samples were centrifuged at 2-8° C. and 6800 g for 6 minutes and stored at −80° C. The time points for blood collection were 0.083, 0.25, 0.5, 1, 2, 4, 8 and 24 hours after intravenous and oral administration.

Data set [6] relates to NCI-H2122 (G12C). Briefly: Cell selectivity test, proliferation inhibition NCI-H2122. The format is cell-based. Particulars: Homo sapiens, 72 hours.
Text: as §1

Where [7] appears, read: mouse, plasma, intravenous injection, 1 mg/kg.
[8] abbreviates: mouse, plasma, oral gavage, 5 mg/kg.

One may read the IC50 as the concentration needed to halve the response being measured. As usually defined, the AUC(0-inf) is total exposure, with the tail of the curve extrapolated. Low readings indicate less exposure, high ones more exposure. For orientation: Cmax means the peak of the concentration-time curve. The term half-life denotes the time needed for the level to fall by half in the phase considered. Read a high half-life as slow decline. As for `C=CC(=O)N1CCN(c2nc(=O)n(-c3c(C)ccnc3C(C)C)c3nc(-c4c(O)cccc4F)c(F)cc23)[C@@H](C)C1` [AMG510], the IC50 in data set [1] is greater than 10000 nM; in data set [2] it was 285 nM; in data set [3] it was 88.3 nM; in data set [4], 7.55 nM; in data set [6] it was 27 nM. The F in data set [5] (oral gavage, 5 mg/kg) is listed as 0.33%. Besides, the total exposure AUC(0-inf) turned out to be 227 ng·h/mL in data set [5] (setting [7]) and 6.12 ng·h/mL in data set [5] (setting [8]). Moreover, the highest concentration (Cmax) turned out to be 623 ng/mL in data set [5] (setting [7]) and 7.25 ng/mL in data set [5] (setting [8]). The compound also had a clearance in data set [5] (setting [7]) of 74.7 mL/min/kg. For the same compound, the half-life in data set [5] (setting [7]) is 13.2 min; in data set [5] (setting [8]) it was 21.6 min. In data set [5] (mouse, plasma, intravenous injection, 1 mg/kg, read-out: Vz), the Vd stood at 1.42 L/kg.

The values above are taken from patent publication US20250034161A1, “SPIROCYCLIC COMPOUND AS KRAS-G12C INHIBITOR” (Shanghai Euregen Biopharma Co., Ltd., priority 2020, published 2025).
